Measured values published in US20240131028A1, “CHEMOVACCINATION AGAINST PLASMODIUM INFECTION WITH SELECTIVE PLASMEPSIN X INHIBITORS” (Merck Sharp & Dohme LLC, priority 2021, published 2024).

system: ring stage parasites (Pf); assay: Parasite lactate dehydrogenase (LDH) growth assay (Parasite Assay, PfLDH Assay); format: cell-based, P. falciparum; details: Table 3; 72 hours growth, LDH readout; read-out: EC50
Description: The parasite stock was maintained at 4% haematocrit in RPMI-Hepes media buffered with sodium bicarbonate and supplemented with 5% heat inactivated human serum and 0.5% albumax. […] On the day of assay set up, a blood smear of the parasite culture was Giemsa stained and counted. The parasitemia was adjusted to 0.7% rings and the haematocrit was diluted to 2% in RPMI-Hepes media buffered with sodium bicarbonate and supplemented with 5% heat inactivated human serum and 0.5% albumax. 30 μl of diluted parasites are then added into 10 μl of media+compound in pre-prepared Greiner TC assay plates. Parasite assay plates were placed in gassed humidified boxes in single layer and allowed to incubate at 37° C. for 72 hours. After 72 hours growth, assay plates were sealed with parafilm and frozen flat, in single file at −80° C. overnight. On the following day, assay plates were allowed to thaw at room temperature for 4 hours to which an LDH assay was performed to measure parasite growth.

In order of falling EC50:
1. CCC1(CC)CC(=O)N(C[C@H]2C(C)[C@@H]2C(=O)N[C@H]2c3ccccc3CC2(C)O)C(=N)N1 (single isomer, unassigned) [Example 29B]  351 nM
2. CC(C)C1(C)CC(NC(=O)[C@H]2C[C@@H]2CN2C(=N)NC(C)(C)CC2=O)c2ccccc2O1 (single isomer, unassigned) [Example 79C]  289 nM
3. CC(C)C1(C)CC(NC(=O)[C@H]2C[C@@H]2CN2C(=N)NC(C)(C)CC2=O)c2ccccc2O1 (single isomer, unassigned) [Example 79B]  275 nM
4. CCC1(CC)CC(=O)N(C[C@H]2C(C)[C@@H]2C(=O)N[C@@H]2c3ccccc3OCC2(C)O)C(=N)N1 (single isomer, unassigned) [Example 35B]  220 nM
5. CCC1(CC)CC(=O)N(C[C@H]2C(C)[C@@H]2C(=O)N[C@H]2c3ccccc3CC2(C)O)C(=N)N1 (single isomer, unassigned) [Example 29A]  203 nM
6. CCC1(CC)CC(=O)N(C(c2cccnc2)[C@H]2C(C)[C@@H]2C(=O)N[C@H]2C[C@H](C(F)(F)F)Oc3ccccc32)C(=N)N1 (single isomer, unassigned) [Example 55B]  180 nM
7. CC1[C@H](C(c2cccnc2)N2C(=N)NC(C)(C)CC2=O)[C@H]1C(=O)N[C@H]1C[C@H](C(F)(F)F)Oc2ccccc21 (single isomer, unassigned) [Example 54B]  130 nM
8. CCC1(CC)CC(=O)N(C[C@H]2C(C)[C@@H]2C(=O)N[C@H]2c3ccccc3CC2(C)O)C(=N)N1 (single isomer, unassigned) [Example 29C]  113 nM
9. CCC1(CC)CC(=O)N(C[C@H]2C(C)[C@@H]2C(=O)N[C@@H]2c3ccccc3OCC2(C)O)C(=N)N1 (single isomer, unassigned) [Example 35A]  85 nM
10. CCC1(CC)CC(=O)N(C[C@H]2C(C)[C@@H]2C(=O)N[C@H]2CC(C)(C)Oc3ccccc32)C(=N)N1 (single isomer, unassigned) [Example 25A]  84 nM
11. COCC[C@H]([C@H]1C[C@@H]1C(=O)NC1CC(C)(COC)Oc2ccccc21)N1C(=N)NC(C)(C)CC1=O (single isomer, unassigned) [Example 82B]  57 nM
12. COCC[C@H]([C@H]1C[C@@H]1C(=O)NC1CC(C)(COC)Oc2ccccc21)N1C(=N)NC(C)(C)CC1=O (single isomer, unassigned) [Example 82C]  53 nM
13. CCC1(CC)CC(=O)N(CC2C(C(=O)N[C@H]3C[C@@H](C(F)(F)F)Oc4ccccc43)C2(F)F)C(=N)N1 (single isomer, unassigned) [Example 17A]  47 nM
14. CCC1(CC)CC(=O)N(C[C@H]2C(C)[C@@H]2C(=O)N[C@@H]2c3ccccc3OC(C)(C)[C@H]2O)C(=N)N1 (single isomer, unassigned) [Example 30A]  45 nM
15. CC[C@]1(C)CC(=O)N(C(c2cncc(F)c2)[C@H]2C[C@@H]2C(=O)N[C@@H]2c3ccccc3OC(C)(C)C2(C)O)C(=N)N1 (single isomer, unassigned) [Example 103A]  29 nM
16. COCC[C@H]([C@H]1C[C@@H]1C(=O)NC1CC(C)(COC)Oc2ccccc21)N1C(=N)NC(C)(C)CC1=O (single isomer, unassigned) [Example 82D]  27 nM
17. CCC1(CC)CC(=O)N(C[C@H]2C(C)[C@@H]2C(=O)N[C@H]2CC(C)(C)Oc3ccccc32)C(=N)N1 (single isomer, unassigned) [Example 25B]  25 nM
18. COCC[C@H]([C@H]1C[C@@H]1C(=O)NC1CC(C)(COC)Oc2ccccc21)N1C(=N)NC(C)(C)CC1=O (single isomer, unassigned) [Example 82A]  24.4 nM
19. COCC[C@H]([C@H]1C[C@@H]1C(=O)NC1CC(C)(C(C)C)Oc2ccccc21)N1C(=N)NC(C)(C)CC1=O (single isomer, unassigned) [Example 80D]  21 nM
20. CCC1(CC)CC(=O)N(CC2C(C(=O)N[C@H]3C[C@@H](C(F)(F)F)Oc4ccccc43)C2(F)F)C(=N)N1 (single isomer, unassigned) [Example 17B]  20 nM
21. COCC[C@H]([C@H]1C[C@@H]1C(=O)NC1CC(C)(C(C)C)Oc2ccccc21)N1C(=N)NC(C)(C)CC1=O (single isomer, unassigned) [Example 80C]  14 nM
22. COCC[C@H]([C@H]1C[C@@H]1C(=O)NC1CC(C)(C(C)C)Oc2ccccc21)N1C(=N)NC(C)(C)CC1=O (single isomer, unassigned) [Example 80A]  9.4 nM
23. CCC1(CC)CC(=O)N(C[C@H]2C(C)[C@@H]2C(=O)N[C@@H]2c3ccccc3OC(C)(C)[C@H]2O)C(=N)N1 (single isomer, unassigned) [Example 30B]  7.7 nM
24. CCC1(C)CC(NC(=O)[C@H]2C[C@@H]2[C@@H](CCOC)N2C(=N)NC(C)(C)CC2=O)c2ccccc2O1 (single isomer, unassigned) [Example 75B]  7.5 nM
25. CCC1(C)CC(NC(=O)[C@H]2C[C@@H]2[C@@H](CCOC)N2C(=N)NC(C)(C)CC2=O)c2ccccc2O1 (single isomer, unassigned) [Example 75C]  7 nM
26. CCC1(C)CC(NC(=O)[C@H]2C[C@@H]2[C@@H](CCOC)N2C(=N)NC(C)(C)CC2=O)c2ccccc2O1 (single isomer, unassigned) [Example 75D]  7 nM
27. COCC[C@H]([C@H]1C[C@@H]1C(=O)NC1CC(C)(C(C)C)Oc2ccccc21)N1C(=N)NC(C)(C)CC1=O (single isomer, unassigned) [Example 80B]  6.6 nM
28. CC(C)C1(C)CC(NC(=O)[C@H]2C[C@@H]2[C@@H](c2cccnc2)N2C(=N)NC(C)(C)CC2=O)c2ccccc2O1 (single isomer, unassigned) [Example 81A]  2.7 nM
29. CC1(C)CC(=O)N([C@H](c2cccnc2)[C@H]2C[C@@H]2C(=O)NC2CC(C)(C)Oc3ccc(F)cc32)C(=N)N1 (single isomer, unassigned) [Example 98B]  2.2 nM
30. CC(C)C1(C)CC(NC(=O)[C@H]2C[C@@H]2[C@@H](c2cccnc2)N2C(=N)NC(C)(C)CC2=O)c2ccccc2O1 (single isomer, unassigned) [Example 81D]  1.3 nM
31. CC1[C@H](C(c2cccnc2)N2C(=N)NC(C)(C)CC2=O)[C@H]1C(=O)N[C@H]1C[C@H](C(F)(F)F)Oc2ccccc21 (single isomer, unassigned) [Example 54A]  1 nM
32. CC(C)C1(C)CC(NC(=O)[C@H]2C[C@@H]2[C@@H](c2cccnc2)N2C(=N)NC(C)(C)CC2=O)c2ccccc2O1 (single isomer, unassigned) [Example 81B]  1 nM
33. CC(C)C1(C)CC(NC(=O)[C@H]2C[C@@H]2[C@@H](c2cccnc2)N2C(=N)NC(C)(C)CC2=O)c2ccccc2O1 (single isomer, unassigned) [Example 81C]  0.9 nM
34. CC1(C)CC(=O)N([C@H](c2cccnc2)[C@H]2C[C@@H]2C(=O)NC2CC(C)(C)Oc3ccc(F)cc32)C(=N)N1 (single isomer, unassigned) [Example 98A]  0.9 nM
35. CCC1(CC)CC(=O)N(C(c2cccnc2)[C@H]2C(C)[C@@H]2C(=O)N[C@H]2C[C@H](C(F)(F)F)Oc3ccccc32)C(=N)N1 (single isomer, unassigned) [Example 55A]  0.8 nM
